Assay results taken from US8673981B2, “Phenylcyclobutylamide derivatives and their stereoisomers, the preparation processes and uses thereof” (priority 2008, dated 2014).
“Also recorded” adds a separate entry of the source.

How the values were obtained:
[1] = system: obese rat model; assay: Weight-reducing pharmacodynamics study in the obese animal model (nutrient feed, 30 days); assay type: in vivo, Sprague Dawley rats; parameters: Average fat weight coefficient: unit not given here; details: for Average added multiplier of body weight: (final - initial)/initial average body weight; for Average fat weight coefficient: average fat weight/final average body weight; for Average fat weight: intraperitoneal and perirenal fat; for Final average body weight: rats on nutrient feed
From the text: The experimental Study of Weight-Reducing on Pharmacodynamics
Same numbers of male and female weanling Sprague Dawley rats (clean grade, 43.3±8.5 g) were obtained from Laboratory Animal Center (Chongqing medical university, China) (Certificate of Approval for Environmental Facilities: SYXK (Yu) 20020007; Certificate of Approval for animal: SCXK (Yu) 20020001). 1.2 Medicine and Preparation: racemic compound hydrochloride of example 7, optical isomers of examples 8, 9, 10 and 11, and positive control Sibutramine Hydrochloride were dissolved in 1% CMC-Na. 1.3 Test Instrument: TGL-16 table model high speed centrifuge (Shanghai Medical Instruments Factory NO. 6); KDC centrifuge (Huicheng Radio Factory, Guangzhou); Sartorius electronic balance (GERMANY); Medical refrigerator temperature (SANYO, JAPAN); thermostat water bath tank (Beijing Xicheng district medical apparatus factory); VXH-3 Mini Vortex Mixer (Shanghai Yuejin Medical Apparatus Facotry). 1.4 Nutrition Feed: the recipe of nutrition feed and basal feed are as follows:
Barley flour 20%, dehydrated vegetable 10%, bean flour 20%, corn flour 16%, yeast 1%, wheat bran 16%, fish meal 10%, bone meal 5%, salt 2%.
In the 100 g basal feed, milk powder 10 g, lard 10 g, egg 1 piece, fresh bean sprouts 250 g, oleum jecoris piscis concentratum 10 drops (including VA 1700 u, VD1700 u) were added.
2.1 Establishment and Grouping of Obese Animal Model
Weanling SD rats were randomly allocated to compound groups with large, middle, small dosages; positive control Sibutramine Hydrochloride groups with large, middle, small dosages; and obese animal model group and blank control group (n=5/group for male; n=5/group for female).
The experimental animals in blank control group were feed with normal feed, and animals in other groups were feed with nutrient feed. All animals have abundant feed for 24 h and can eat casually.
Experimental animals in each group were administrated with corresponding drugs once a day at 9 am for 30 days, with a dosage of 1 ml/100 g body weight. The dosage corresponds to clinical dosage of 10 mg/person/day for Sibutramine, which is transformed according to the equivalent dosage between human and rat. Large dosage group adopts 1.2 mg/kg; middle dosage group adopts 0.6 mg/kg, and small dosage group adopts 0.3 mg/kg. Obese animal model group: […] of 1% CMC-Na solution; blank control group: […] of 1% CMC-Na solution.
Measurements were taken of daily body weight; general status; hair; eye, mouth and nose secretions; feces, urinate and activities.
Intraperitoneal and perirenal fat were weighted, and the fat weight coefficient was calculated by body weight.

[2] = background statement; cited from earlier work
[3] = large dosage 1.2 mg/kg once a day for 30 days
[4] = middle dosage 0.6 mg/kg once a day for 30 days
[5] = small dosage 0.3 mg/kg once a day for 30 days

SMILES	Average added multiplier of body weight [1, 3]	Average fat weight coefficient [1, 3]	Average fat weight [1, 3] [g]	Final average body weight [1, 3] [g]	Average added multiplier of body weight [1, 4]	Average fat weight coefficient [1, 4]	Average fat weight [1, 4] [g]	Final average body weight [1, 4] [g]	Average added multiplier of body weight [1, 5]	Average fat weight coefficient [1, 5]	Average fat weight [1, 5] [g]	Final average body weight [1, 5] [g]	Decrease of body weight compared with Sibutramine ([1]; obese rats, 30 days)	Effect of decreasing fat weight ([1]; obese rats, 30 days, among treatment groups and versus Sibutramine, hydrochloride)	Reduction of basal weight [2]
CCC(C)C(N)C(=O)NC(CC(C)C)C1(c2ccc(Cl)cc2)CCC1.Cl (racemic) [Example 7, 2-amino-N-{1-[1-(4-chlorophenyl)cyclobutyl]-3-methylbutyl}-3-methylvaleramide hydrochloride]	3.2	1.1	2.0	176.2	3.3	1.2	2.1	180.5	3.3	1.2	2.2	186.9	–	–	–
CC[C@H](C)[C@H](N)C(=O)N[C@@H](CC(C)C)C1(c2ccc(Cl)cc2)CCC1.Cl [Example 8, (2S,3S)-2-amino-N-{(S)-1-[1-(4-chlorophenyl)cyclobutyl]-3-methylbutyl}-3-methylvaleramide hydrochloride]	3.0	1.0	1.7	175.2	3.2	1.0	1.9	185.6	3.4	1.1	2.0	188.9	–	–	–
CC[C@H](C)[C@H](N)C(=O)N[C@H](CC(C)C)C1(c2ccc(Cl)cc2)CCC1.Cl [Example 9, (2S,3S)-2-amino-N-{(R)-1-[1-(4-chlorophenyl)cyclobutyl]-3-methylbutyl}-3-methylvaleramide hydrochloride]	2.6	0.9	1.4	156.1	2.7	0.9	1.5	167.9	2.8	0.9	1.5	168.1	decreased the body weight evidently	the best; also recorded: significantly better effect than Sibutramine	–
CC[C@@H](C)[C@@H](N)C(=O)N[C@@H](CC(C)C)C1(c2ccc(Cl)cc2)CCC1.Cl [Example 10, (2R,3R)-2-amino-N-{(S)-1-[1-(4-chlorophenyl)cyclobutyl]-3-methylbutyl}-3-methylvaleramide hydrochloride]	3.0	1.1	1.9	173.9	3.2	1.2	2.0	180.4	3.2	1.2	2.1	185.0	–	–	–
CC[C@@H](C)[C@@H](N)C(=O)N[C@H](CC(C)C)C1(c2ccc(Cl)cc2)CCC1.Cl [Example 11, (2R,3R)-2-amino-N-{(R)-1-[1-(4-chlorophenyl)cyclobutyl]-3-methylbutyl}-3-methylvaleramide hydrochloride]	2.8	1.1	1.8	162.4	3.0	1.1	1.9	173.2	3.2	1.2	2.1	181.0	–	–	–
CC(C)CC(N(C)C)C1(c2ccc(Cl)cc2)CCC1.Cl.O (stereo not drawn) [Sibutramine, 1-(4-chlorophenyl)-N,N-dimethyl-α-(2-methylpropyl)cyclobutanemethanamine hydrochloride monohydrate, reference compound]	2.9	1.1	1.9	165.7	3.2	1.0	1.8	183.2	3.4	1.0	1.9	185.7	–	–	5%-10%
